Tests used:
primary astrocytes [1] = test: Intracellular glycogen quantification; assay type: cell-based, mouse; details: CDC54K hits, 10 μM, 3 h
Method: For glycogen dosage, a protein dosage was first performed in order to assess whether harvested astrocytes from primary cell cultures yielded enough and equivalent amounts of proteins comparing each replicate, and to ensure that the obtained differences in glycogen quantities were due to drug action and not to inner protein quantities.
Astrocytes used for these dosages were previously grown in 6-well plates for 17 days and stimulated with Vehicle (DMSO) or drug of interest (1 μM to 100 μM) for 180 min, at 37° C. 5% CO2/95% air in D5030 complete medium. Medium was removed and replaced with 600 μl of 30 mM Tris HCl, and stored at −20° C.
Proteins were dosed using the micro BCA Protein Assay kit (Thermo Scientific), as described in the manufacturer's instructions. Briefly, thawed cells were sonicated and 5 μl aliquots were placed in a transparent 96-well plate, to which we added 25 μl 30 mM Tris HCl, 70 μl H2O and 100 μl of a BCA mix (made as described in manufacturer's guidelines). After a 120 min-incubation at 37° C., absorbance was measured with Safire 2 spectrophotometer at a wavelength of 562 nm, and protein quantities were determined from a standard curve of Bovine Serum Albumin (BSA).
Glycogen was quantified using a 250 μl-aliquot of the same stimulated, thawed, and sonicated cells. After an incubation period of 30 min at 90° C. and 400 rpm, 28 μl of an acetic acid/sodium acetate (both from Sigma) 0.1M pH 4.6 buffer was added to each aliquot, which was then separated in two. Each split aliquot received whether 5 μl of amyloglucosidase (Roche) or 5 μl H2O, and all cell solutions were incubated for 120 min in a shaking 37° C.-waterbath. After a centrifugation at 16'000G for 5 min, 20 μl of supernatant were placed 96-well plate, to which 150 μl of a mix containing 0.67 mM ATP (Roche), 0.67 mM NADP (Roche), 1.8% hexokinase/glucose-6-phosphate dehydrogenase (Roche) and 0.1M Tris Buffer-HCl/3.3 mM magnesium (Fluka)/pH 8.1 buffer was added. Fluorescence was measured with Safire 2 spectrophotometer (340 nm excitation/440 nm emission). Glycogen concentration was obtained by substracting glucose value of samples with amyloglucosidase to samples without amyloglucosidase, and were expressed relative to the amount of proteins previously determined.
Levels of intracellular glycogen in astrocytes were measured at 3 h after stimulation with 20 Hits from the Prestwick library (10 μM each), as shown in FIG. 2. n=6-10; Ctrl pos. is glutamate (0.5 mM). Statistical analysis consisted in ANOVA followed by Fisher LSD post-hoc test for pair-wise comparisons.
Statistical analysis consisted in ANOVA followed by Fisher LSD post-hoc test for pair-wise comparisons.

primary astrocytes [2] = test: MTT viability assay; assay type: cell-based; details: Mus musculus, Astrocyte; CDC54K hits, 0-200 uM, 24 h
Method: For cell toxicity determination, astrocytes in 96-well plates were stimulated 24 h (37° C. 5% CO2/95% air) with a gradient ranging from 0.1 to 200 μM of tested compounds. After stimulation, 5 mg/ml thiazol blue tetrazolium bromide (MTT, Sigma-Aldrich) in warm D5030 complete medium was added to each well, and cells were incubated for 4 h at 37° C. (5% CO2). The medium was then removed by aspiration, and the reaction was stopped by the addition of 50 μl DMSO per well.
The amount of reduced MTT (formazan) solubilized in DMSO was then determined spectrophotometrically using absorbance at 570 nm (Safire 2; Tecan).
MTT cellular viability assay was performed on astrocytes exposed to Preswtick Hits (concentrations ranging from 0 uM to 200 uM).
MTT cellular viability assay was performed on astrocytes exposed to CDC54K Hits (concentrations ranging from 0 uM to 200 uM).

primary astrocytes [3] = test: Mitochondrial activity: production of H2O2 (Amplex red); assay type: cell-based; details: Mus musculus, Astrocyte, 1.5 h; CDC54K hits, 0-200 uM, 90 min
Method: Hydrogene peroxide (H2O2) released in the supernatant is detected enzymatically with Amplex red (Zhou, Diwu et al. 1997). Oxidation of Amplex red is catalysed by the horseradish peroxidase in presence of H2O2 into highly fluorescent resorufin. Fluorescence measure is read at 545 nm extinction, 590 nm emission. The amount of H2O2 was expressed relatively to the proteins content extracted from the cells in culture.
Mitochondrial respiration in astrocytes was measured through production of H2O2 at 90 min after stimulation with Prestwick Hits (10 uM each). […] CCCP (2 uM) was used as positive control.
Mitochondrial respiration in astrocytes was measured through production of H2O2 at 90 min after stimulation with CDC54K Hits (ranging from 0 to 200 uM).

primary astrocytes [4] = test: Intracellular glycogen quantification, Example 2; assay type: cell-based, mouse; details: 10 μM, 3 h
Method: Astrocytes grown on 12-well plates were used for intracellular glycogen quantifications. Cells were stimulated with Vehicle (DMSO), with compounds of the invention (10 μM), or with a positive control for 180 min, at 37° C. 5% CO2/95% air in D5030 medium complemented with
5 mM D-glucose and 44 mM sodium bicarbonate (pH 7.2). […] At the end of the stimulation, medium was removed and replaced with 600 μl of 30 mM Tris HCl, and stored at −20° C.
First, the amount of proteins in each sample was quantified to assess whether harvested astrocytes from primary cell cultures yielded enough and equivalent amounts of proteins on each replicates. Proteins were quantified using the micro BCA Protein Assay kit (Thermo Scientific), according to manufacturer's instructions. Next, intracellular glycogen concentrations were quantified using a 250 μl-aliquot of the same stimulated, thawed, and sonicated cell lysate. After an incubation period of 30 min at 90° C. and 400 rpm, 28 μl of a 0.1M acetic acid/sodium acetate buffer (pH 4.6) was added to each lysate aliquots, which were then separated in two. Each split aliquots received either 5 μl of amyloglucosidase or H2O, and incubated for 120 min at 37° C. After centrifugation at 16'000G for 5 min, 20 μl of supernatant were placed in a 96-well plate, to which 150 μl of a mix containing 0.67 mM ATP, 0.67 mM NADP, 1.8% hexokinase/glucose-6-phosphate dehydrogenase in a 0.1M Tris Buffer-HCl/3.3 mM magnesium (pH 8.1) buffer was added. Fluorescence intensity (340 nm excitation/440 nm emission) was measured using a Safire 2 spectrophotometer. Glucose concentrations were assessed relative to a glucose standard curve, and glycogen concentrations were calculated by subtracting glucose values of samples that had received amyloglucosidase (i.e. that had degraded their glycogen stores) to samples that had not. Intracellular levels of glycogen, which is the main source of glucose storage in the brain, were analyzed in primary astrocytes after treatment with compounds of interest (10 μM, 3 h) (FIG. 5B), and compound GP-0157 (0.1, 1, 10 μM, 3 h) (FIG. 20).

Question: Which “Glycogen (statistical significance of glycogen degradation)” value (primary astrocytes [1]) does the source give for `O=C1CCCN1c1ccc(S(=O)(=O)Nc2cccc(/C=C/c3ccccn3)c2)cc1` [T5644989] here?
Answer: Its value is “** (** p<0.01)”.

Question: What about the IC50 (primary astrocytes [2]) of the same molecule?
Answer: The IC50 was greater than 200 µM.

Question: What about the IC50 (primary astrocytes [3]) of the same molecule?
Answer: The IC50 was greater than 200 µM.

Question: What about the “mobilization of intracellular glycogen” value (primary astrocytes [4]) of the same molecule?
Answer: The value was “significantly enhance”.

Question: `N#Cc1ccc(C(=O)N2CCC(Nc3ncnc4c3CCC4)C2)cc1` (stereo not drawn) [T636-2387] was tested. Which “Glycogen (statistical significance of glycogen degradation)” value (primary astrocytes [1]) did it give?
Answer: The value was “ns”.

Question: And the IC50 (primary astrocytes [2])?
Answer: Its IC50 is greater than 200 µM.

Question: What about the IC50 (primary astrocytes [3]) of the same molecule?
Answer: Its IC50 is greater than 200 µM.

Question: What about the “mobilization of intracellular glycogen” value (primary astrocytes [4]) of the same molecule?
Answer: Its value is “significantly enhance”.

Question: `CSc1cccc(NS(=O)(=O)c2ccc3onc(C(=O)N4CCCC4)c3c2)c1` [L995-0125] was tested. Which “Glycogen (statistical significance of glycogen degradation)” value (primary astrocytes [1]) did it give?
Answer: Its value is “ns”.

Question: And the IC50 (primary astrocytes [2])?
Answer: Its IC50 is greater than 200 µM.

Question: And the IC50 (primary astrocytes [3])?
Answer: The IC50 was 173 µM.

Question: For `CCc1ccc(S(=O)(=O)N2CCSC2c2ccc(OC)c(OC)c2)cc1` (stereo not drawn) [T5463586], which “Glycogen (statistical significance of glycogen degradation)” value (primary astrocytes [1]) is on record?
Answer: The value was “*** (*** p<0.001)”.

Question: And the IC50 (primary astrocytes [2])?
Answer: Its IC50 is greater than 200 µM.

Question: What about the IC50 (primary astrocytes [3]) of the same molecule?
Answer: Its IC50 is greater than 200 µM.

Question: With `Cc1nc2ccc(NS(=O)(=O)c3cccc(F)c3)cc2s1` [T6937001] as the molecule, how does the “Glycogen (statistical significance of glycogen degradation)” value (primary astrocytes [1]) read?
Answer: Its value is “ns”.

Question: What about the IC50 (primary astrocytes [2]) of the same molecule?
Answer: Its IC50 is greater than 200 µM.

Question: And the IC50 (primary astrocytes [3])?
Answer: The IC50 was greater than 200 µM.

Question: What about the “mobilization of intracellular glycogen” value (primary astrocytes [4]) of the same molecule?
Answer: Its value is “significantly enhance”.

Question: Which results are given for `CCn1nccc1-c1csc(S(=O)(=O)Nc2ccc(Cl)cc2F)c1` [L924-1031]?
Answer: Glycogen (statistical significance of glycogen degradation) (primary astrocytes [1]): ** (** p<0.01); IC50 (primary astrocytes [2]): > 200 µM; IC50 (primary astrocytes [3]): 48.6 µM; mobilization of intracellular glycogen (primary astrocytes [4]): significantly enhance

Question: Which “Glycogen (statistical significance of glycogen degradation)” value (primary astrocytes [1]) does the source give for `CC(=O)N1CCc2sc(S(=O)(=O)N3CCN(c4ccccc4C)CC3)cc2C1` [P025-0159] here?
Answer: Its value is “ns”.

Question: And the IC50 (primary astrocytes [2])?
Answer: The IC50 was greater than 200 µM.

Question: What about the IC50 (primary astrocytes [3]) of the same molecule?
Answer: Its IC50 is greater than 200 µM.

Question: And the “mobilization of intracellular glycogen” value (primary astrocytes [4])?
Answer: The value was “significantly enhance”.

Question: Which results are given for `Cc1ccccc1NC(=O)C1CCCN(c2ncnc3oc(C)c(C)c23)C1` (stereo not drawn) [F228-0422]?
Answer: Glycogen (statistical significance of glycogen degradation) (primary astrocytes [1]): ** (** p<0.01); IC50 (primary astrocytes [2]): > 200 µM; IC50 (primary astrocytes [3]): > 200 µM; mobilization of intracellular glycogen (primary astrocytes [4]): significantly enhance

Question: For `COc1cc(C)c(Cl)cc1S(=O)(=O)NCc1ccncc1` [T5580243], which “Glycogen (statistical significance of glycogen degradation)” value (primary astrocytes [1]) is on record?
Answer: Its value is “ns”.

Question: What about the IC50 (primary astrocytes [2]) of the same molecule?
Answer: Its IC50 is greater than 200 µM.

Question: And the IC50 (primary astrocytes [3])?
Answer: Its IC50 is greater than 200 µM.

Question: Which “Glycogen (statistical significance of glycogen degradation)” value (primary astrocytes [1]) does the source give for `CCc1ccc(S(=O)(=O)Nc2ccc3[nH]ncc3c2)cc1` [T5599014] here?
Answer: Its value is “ns”.

Question: And the IC50 (primary astrocytes [2])?
Answer: Its IC50 is greater than 200 µM.

Question: What about the IC50 (primary astrocytes [3]) of the same molecule?
Answer: Its IC50 is 158 µM.

Question: Which “Glycogen (statistical significance of glycogen degradation)” value (primary astrocytes [1]) does the source give for `c1ccc2c(c1)CCN(c1ncnc3sccc13)C2` [T0517-8250] here?
Answer: Its value is “ns”.

Question: And the “mobilization of intracellular glycogen” value (primary astrocytes [4])?
Answer: The value was “significantly enhance”.

Question: Which results are given for `CCc1nc(-c2csc(S(=O)(=O)NCc3ccc4c(c3)OCO4)c2)no1` [L287-0468]?
Answer: Glycogen (statistical significance of glycogen degradation) (primary astrocytes [1]): ** (** p<0.01); IC50 (primary astrocytes [2]): > 200 µM; IC50 (primary astrocytes [3]): > 200 µM; mobilization of intracellular glycogen (primary astrocytes [4]): significantly enhance
